Source: US5981497A, “Utilization of sophorolipids as therapeutically active substances or cosmetic products, in particular for the treatment of the skin” (Institut Francais du Petrole, priority 1995, dated 1999)

Key:
[1] = biological target: T1, fibrin clot reconstituted with bovine thrombin and human fibrinogen (Homo sapiens, UniProt P02671+P02675+P02679); test: Fibrinolysis in vitro (lysis of fibrin clot); type: biochemical;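 also: values are percent lysis of the fibrin clot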
T1 sequence (P02671 20-644 isoform P02671-2 limits assumed): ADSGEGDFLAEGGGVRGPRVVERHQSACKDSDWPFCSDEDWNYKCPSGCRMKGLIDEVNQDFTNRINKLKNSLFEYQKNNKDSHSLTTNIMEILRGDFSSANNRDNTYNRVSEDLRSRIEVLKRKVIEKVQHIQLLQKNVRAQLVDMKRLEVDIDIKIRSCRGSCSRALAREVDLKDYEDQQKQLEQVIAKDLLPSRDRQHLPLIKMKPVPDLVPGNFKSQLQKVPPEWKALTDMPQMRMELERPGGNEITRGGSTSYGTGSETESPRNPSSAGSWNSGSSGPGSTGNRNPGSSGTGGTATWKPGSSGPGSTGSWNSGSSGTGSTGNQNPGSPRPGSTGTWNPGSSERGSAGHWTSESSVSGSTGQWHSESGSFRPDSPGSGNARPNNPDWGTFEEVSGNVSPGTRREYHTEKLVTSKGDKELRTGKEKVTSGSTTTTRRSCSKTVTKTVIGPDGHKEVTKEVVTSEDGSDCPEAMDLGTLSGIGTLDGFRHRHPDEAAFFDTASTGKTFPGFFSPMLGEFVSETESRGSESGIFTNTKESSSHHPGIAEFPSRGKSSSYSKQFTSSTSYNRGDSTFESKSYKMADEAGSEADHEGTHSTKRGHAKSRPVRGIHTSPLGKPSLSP
T1 sequence (P02675 45-491 limits assumed): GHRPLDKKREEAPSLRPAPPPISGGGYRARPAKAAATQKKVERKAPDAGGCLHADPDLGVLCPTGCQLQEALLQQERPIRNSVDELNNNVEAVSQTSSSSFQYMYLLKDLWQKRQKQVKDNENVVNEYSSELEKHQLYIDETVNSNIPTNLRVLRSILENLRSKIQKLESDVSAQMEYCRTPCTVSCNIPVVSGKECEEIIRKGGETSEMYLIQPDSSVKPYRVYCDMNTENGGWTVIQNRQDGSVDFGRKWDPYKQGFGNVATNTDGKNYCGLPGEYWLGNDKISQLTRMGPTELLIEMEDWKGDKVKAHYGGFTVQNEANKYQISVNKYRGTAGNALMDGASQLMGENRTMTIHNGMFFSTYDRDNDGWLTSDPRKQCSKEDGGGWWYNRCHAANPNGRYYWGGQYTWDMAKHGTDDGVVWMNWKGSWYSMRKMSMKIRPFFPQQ
T1 sequence (P02679 27-437 isoform P02679-2 limits assumed): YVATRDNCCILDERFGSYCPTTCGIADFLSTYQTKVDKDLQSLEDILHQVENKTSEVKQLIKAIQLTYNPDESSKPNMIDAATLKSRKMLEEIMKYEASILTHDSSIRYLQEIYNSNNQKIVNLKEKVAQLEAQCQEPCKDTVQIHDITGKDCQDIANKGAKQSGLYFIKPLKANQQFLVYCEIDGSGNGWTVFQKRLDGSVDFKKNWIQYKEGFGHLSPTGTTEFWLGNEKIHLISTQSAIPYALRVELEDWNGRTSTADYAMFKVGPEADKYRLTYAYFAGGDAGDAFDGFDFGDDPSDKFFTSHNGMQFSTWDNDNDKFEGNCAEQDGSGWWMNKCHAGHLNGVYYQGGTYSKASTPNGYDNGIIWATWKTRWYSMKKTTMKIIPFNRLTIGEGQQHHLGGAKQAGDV
Protocol: They also act directly on necrotic plaque. […] This lysis was measured from a fibrin clot that was reconstituted with bovine thrombin and human fibrinogen. The clot that is obtained is covered by 0.5 ml of PBS that contains the sample. The modification of the fibrin gel thickness at 4 hours and 24 hours makes it possible to quantify the fibrinolytic activity. This activity will therefore promote fibrinolysis at wounds, making it possible to act on the bedsore spot and to induce better granulation, as well as better organic tissue oxygenation. Moreover, owing to their surfactant property, sophorolipids make the fragments, molecules, soluble and detach the dead cells from the bed of the wound. This last action is more particularly due to their role in desquamation, which will be described below.

[2] = Cytotoxicity on primocultures at 24 hours (neutral red), fibroblasts; type: cell-based; settings: fibroblasts, 24 hours, read-out: Cellular Viability Rate; for viability at 24 h, 1000 µM: 10^-3M; for viability at 24 h, 100 µM: 10^-4M; for viability at 24 h, 10 µM: 10^-5M; for viability at 24 h, 1 µM: 10^-6M
Text: (§1) Their innocuousness and their activity make it possible to use them in other stages of healing, namely granulation and epithelialization, by modulating their concentration in the formulas of products that are used. This is possible only because of the low cytotoxicity of sophorolipids, as Tables 3A and 3B show. The toxicity of the products of the invention has been evaluated with a viability test with neutral red on two cellular types of the skin, cells L929 and other fibroblasts of the dermis and cells NCTC 2544 and keratinocytes of the epidermis. The results, which are presented in Tables 3A, 3B, correspond to the rates of cellular viability that are expressed in % relative to the negative test.

[3] = Cytotoxicity on primocultures at 24 hours (neutral red), keratinocytes; type: cell-based; settings: read-out: Cellular Viability Rate; for viability at 24 h, 1000 µM: 10^-3M; for viability at 24 h, 100 µM: 10^-4M; for viability at 24 h, 10 µM: 10^-5M; for viability at 24 h, 1 µM: 10^-6M
Text: as §1

[4] = Cytotoxicity on L929 at 24 hours (neutral red); type: cell-based; settings: mouse, l929 cells, read-out: Cellular Viability Rate; for viability at 24 h, 50000 µM: 5.10-2M; for viability at 24 h, 5000 µM: 5.10-3M; for viability at 24 h, 500 µM: 5.10-4M; for viability at 24 h, 10000 µM: 10^-2M; for viability at 24 h, 1000 µM: 10^-3M; for viability at 24 h, 100 µM: 10^-4M; for viability at 24 h, 10 µM: 10^-5M
Text: as §1

[5] = Cytotoxicity on NCTC2544 at 24 hours (neutral red); type: cell-based; settings: human, nctc2544 cells, read-out: Cellular Viability Rate; for viability at 24 h, 50000 µM: 5.10-2M; for viability at 24 h, 5000 µM: 5.10-3M; for viability at 24 h, 500 µM: 5.10-4M; for viability at 24 h, 10000 µM: 10^-2M; for viability at 24 h, 1000 µM: 10^-3M; for viability at 24 h, 100 µM: 10^-4M; for viability at 24 h, 10 µM: 10^-5M
Text: as §1

[6] = tested on: keratinocyte culture (detachment of corneocytes); test: Desquamating test, detachment of corneocytes in vitro; type: cell-based; settings: for T60-T0 mean difference: p less than 0.001; for activity at 100 µM / activity at 10 µM / activity at 1 µM: Keratinocyte, read-out: %/TN, proportion of detached corneocytes relative to the negative test
Text: Variation coefficient CV is obtained as follows: [formula]
Actually, the therapeutic applications incidentally involve cosmetic applications.

| Compound | viability at 24 h, 1000 µM [2] [%] | viability at 24 h, 100 µM [2] [%] | viability at 24 h, 10 µM [2] [%] | viability at 24 h, 1 µM [2] [%] | viability at 24 h, 1000 µM [3] [%] | viability at 24 h, 100 µM [3] [%] | viability at 24 h, 10 µM [3] [%] | viability at 24 h, 1 µM [3] [%] | viability at 24 h, 50000 µM [4] [%] | viability at 24 h, 5000 µM [4] [%] | viability at 24 h, 500 µM [4] [%] | viability at 24 h, 10000 µM [4] [%] | viability at 24 h, 1000 µM [4] [%] | viability at 24 h, 100 µM [4] [%] | viability at 24 h, 10 µM [4] [%] | viability at 24 h, 50000 µM [5] [%] | viability at 24 h, 5000 µM [5] [%] | viability at 24 h, 500 µM [5] [%] | viability at 24 h, 10000 µM [5] [%] | viability at 24 h, 1000 µM [5] [%] | further results |
| --- | --- | --- | --- | --- | --- | --- | --- | --- | --- | --- | --- | --- | --- | --- | --- | --- | --- | --- | --- | --- | --- |
| CC1CCCCCC/C=C\CCCCCCCC(=O)O[C@H]2[C@H](O)[C@@H](O)[C@H](O[C@H]3[C@H](O1)O[C@H](CO)[C@@H](O)[C@@H]3O)O[C@@H]2CO (stereo partly shown) [Sophorolipid in Lactone Form] | 5.96 | 91.2 | 100 | 101 | 6.58 | 95.9 | 99.6 | 99.6 | 5.65 | 5.44 | 6.63 | 5.26 | 5.71 | 87 | 96.5 | 5.86 | 6.44 | 8.7 | 6.49 | 6.17 | Lysis of the fibrin clot ([1]; 4 hours, 30% MS): 15 % relative to TN; Lysis of the fibrin clot ([1]; 24 hours, 30% MS): 33 % relative to TN; viability at 24 h, 100 µM [5]: 85.2%; viability at 24 h, 10 µM [5]: 95.5%; T60-T0 mean difference ([6]; 10^-4M): 2389 corneocytes/ml; T60-T0 mean difference ([6]; 10^-5M): 1833 corneocytes/ml; T60-T0 mean difference ([6]; 10^-6M): 1528 corneocytes/ml; activity at 100 µM ([6]; 10^-4M): 205%; activity at 10 µM ([6]; 10^-5M): 157%; activity at 1 µM ([6]; 10^-6M): 131% |
| CC(CCCCCC/C=C\CCCCCCCC(=O)O)O[C@@H]1O[C@H](CO)[C@@H](O)[C@H](O)[C@H]1O[C@@H]1O[C@H](CO)[C@@H](O)[C@H](O)[C@H]1O (stereo partly shown) [Sophorolipid in Acid Form] | 85.7 | 98.3 | 98.7 | 99.7 | 86.7 | 99.3 | 99.9 | 99.5 | 5.47 | 7.62 | 99.2 | 6.18 | 100 | 102 | 101 | 6.35 | 8.34 | 99.9 | 7.12 | 100 | Lysis of the fibrin clot ([1]; 4 hours, 10% MS): 75 % relative to TN; Lysis of the fibrin clot ([1]; 4 hours, 10-1M): 66 % relative to TN; Lysis of the fibrin clot ([1]; 4 hours, 10^-2M): 5 % relative to TN; Lysis of the fibrin clot ([1]; 4 hours, 10^-3M): 0 % relative to TN; Lysis of the fibrin clot ([1]; 4 hours, 10^-4M): 0 % relative to TN; Lysis of the fibrin clot ([1]; 4 hours, 10^-5M): 0 % relative to TN; Lysis of the fibrin clot ([1]; 24 hours, 10% MS): 90 % relative to TN; Lysis of the fibrin clot ([1]; 24 hours, 10-1M): 80 % relative to TN; Lysis of the fibrin clot ([1]; 24 hours, 10^-2M): 40 % relative to TN; Lysis of the fibrin clot ([1]; 24 hours, 10^-3M): 20 % relative to TN; Lysis of the fibrin clot ([1]; 24 hours, 10^-4M): 5 % relative to TN; Lysis of the fibrin clot ([1]; 24 hours, 10^-5M): 0 % relative to TN; viability at 24 h, 100 µM [5]: 100%; viability at 24 h, 10 µM [5]: 101%; T60-T0 mean difference ([6]; 10^-4M): 2278 corneocytes/ml; T60-T0 mean difference ([6]; 10^-5M): 1944 corneocytes/ml; T60-T0 mean difference ([6]; 10^-6M): 1555 corneocytes/ml; activity at 100 µM ([6]; 10^-4M): 195%; activity at 10 µM ([6]; 10^-5M): 167%; activity at 1 µM ([6]; 10^-6M): 133% |
